Assay results published in patent publication US20200046802A1, “THERAPEUTIC METHOD USING TOLEROGENIC PEPTIDES” (APITOPE INTERNATIONAL NV, priority 2017, published 2020).
Ends that are not written are not given here.

How the values were obtained:
[1] = test system: subjects with Graves' disease; assay: Open label upward titration study of ATX-GD-59, safety; assay type: in vivo, human; conditions: first 5 patients
Experimental: (§1) Safety and proof of principle study of ATX-GD-59 in male and female subjects with Graves' disease not currently treated with anti-thyroid therapy: An Open label study, with an upward titration over five dose levels administered by Intradermal injection.
(§2) There was an upward titration over five dose levels (injection(s) of 25, 50, 100, 400 and 800 μg) of ATX-GD-59 followed by injection(s) of 800 μg injected on five further occasions. All doses were based on the total peptide.
(§3) All doses were administered by intradermal injection at intervals of 14+/−3 days.
Subjects will be observed in the clinic for at least two hours after administration of the study drug and vital signs will be recorded at 15 minute intervals for the first hour and 30 minute intervals for the second hour. […]
Safety endpoints, which will be evaluated on an ongoing basis up to Week 22, are: • Injection site reactions as reported by the subjects in the diary card. • Occurrence of treatment related adverse events (Adverse Events), Serious Adverse Events, and laboratory abnormalities compared to baseline. • Results from the physical examination, and vital signs (reported on an ongoing basis and compared to baseline/screening). • Premature termination and reasons for premature termination from treatment and/or the study.

[2] = test system: subjects with Graves' disease; assay: Open label upward titration study of ATX-GD-59, TSHR antibody and free T3 levels; assay type: in vivo, human
Experimental: as §1, §2, §3
Criteria for Evaluation of the Secondary Objectives: • TSHR antibody levels. • Ratio of stimulatory vs inhibitory TSHR antibodies. • Free T3, free T4 and TSH serum levels.

ATX-GD-59: comprises the RNB-5D-K1 and RNB-9B peptides of SEQ ID NOs: 5 and 6; lyophilised equimolar mixture of two peptides (chain 1 KKKKYVSIDVTLQQLESHKKK; chain 2 GLKMFPDLTKVYSTD; not fully specified)
safety data analysed by DMC [1]: No safety issues were identified | T3, % change from SD1 to W18 ([2]; Subject 3101): 13.60% | TRAb, % change from SD1 to W18 ([2]; Subject 3101): 3.58% | TSI, % change from SD1 to W18 ([2]; Subject 3101): −30.32% | T3, % change from SD1 to W18 ([2]; Subject 3301): 21.4% | TRAb, % change from SD1 to W18 ([2]; Subject 3301): 16.60% | TSI, % change from SD1 to W18 ([2]; Subject 3301): −4.48% | T3, % change from SD1 to W18 ([2]; Subject 3402): −17.72% | TRAb, % change from SD1 to W18 ([2]; Subject 3402): −61.13% | TSI, % change from SD1 to W18 ([2]; Subject 3402): −57.89% | T3, % change from SD1 to W18 ([2]; Subject 3501): −22.39% | TRAb, % change from SD1 to W18 ([2]; Subject 3501): −30.33% | TSI, % change from SD1 to W18 ([2]; Subject 3501): −32.45% | T3, % change from SD1 to W18 ([2]; Subject 3503): −45.33% | TRAb, % change from SD1 to W18 ([2]; Subject 3503): −64.51% | TSI, % change from SD1 to W18 ([2]; Subject 3503): −61.71% | stimulating TRAB levels (TSI) ([2]; first 5 subjects): All subjects had decrease | subjects with decreases in T3 and TRAB ([2]; first 5 subjects): Three of 5
